US10329278B2, “Pharmaceutical compounds” (Heptares Therapeutics Limited, priority 2017, dated 2019)
“And” between values parts separate entries of the source, which are not always exact repeats. Identical values can stand only once. Like-named read-outs stand apart in the source and are kept apart here.

Columns and labels:
[1] = target: T1, human muscarinic M1 receptor (Homo sapiens, UniProt P11229); assay: Alphascreen Surefire phospho-ERK1/2 functional assay, M1; type: cell-based; details: for EC50 / % Emax cf. ACh (M1) / pEC50 M1: CHO cells stably expressing human M1; for EC50 / pEC50 M1: agonist 5 min, 37° C.; for EC50: read-out: pEC50 M1 (converted); for % Emax cf. ACh (M1) / Emax: relative to ACh; for Emax: CHO, read-out: % Emax cf. ACh (M1), CHO cells stably expressing human M1
T1 sequence (P11229 1-460): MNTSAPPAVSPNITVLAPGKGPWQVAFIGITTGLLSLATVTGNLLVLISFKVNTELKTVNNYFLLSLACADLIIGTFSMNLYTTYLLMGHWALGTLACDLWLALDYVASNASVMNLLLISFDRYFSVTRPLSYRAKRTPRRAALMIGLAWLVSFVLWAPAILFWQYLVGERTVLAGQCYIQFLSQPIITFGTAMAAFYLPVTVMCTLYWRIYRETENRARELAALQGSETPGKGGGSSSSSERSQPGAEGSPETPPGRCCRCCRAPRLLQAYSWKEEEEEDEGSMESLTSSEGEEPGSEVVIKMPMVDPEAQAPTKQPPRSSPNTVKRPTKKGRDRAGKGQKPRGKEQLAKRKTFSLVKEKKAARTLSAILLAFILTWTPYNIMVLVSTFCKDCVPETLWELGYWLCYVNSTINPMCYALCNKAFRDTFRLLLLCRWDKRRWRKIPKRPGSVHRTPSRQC
Description: (§1) ERK1/2 phosphorylation is a downstream consequence of both Gq/11 and Gi/o protein coupled receptor activation, making it highly suitable for the assessment of M1, M3 (Gq/11 coupled) and M2, M4 receptors (Gi/o coupled), rather than using different assay formats for different receptor subtypes. CHO cells stably expressing the human muscarinic M1, M2, M3 or M4 receptor were plated (25K/well) onto 96-well tissue culture plates in MEM-alpha+10% dialysed FBS. Once adhered, cells were serum-starved overnight. Agonist stimulation was performed by the addition of 5 μL agonist to the cells for 5 min (37° C.). Media was removed and 50 μL of lysis buffer added. After 15 min, a 4 μL sample was transferred to 384-well plate and 7 μL of detection mixture added.

[2] = target: T2, human muscarinic M4 receptor (Homo sapiens, UniProt P08173); assay: Alphascreen Surefire phospho-ERK1/2 functional assay, M4; type: cell-based; details: for EC50 / pEC50 M4 / % Emax cf. ACh (M4): CHO cells stably expressing human M4; for EC50 / pEC50 M4: agonist 5 min, 37° C.; for EC50: read-out: pEC50 M4 (converted); for Emax: CHO
T2 construct: expressed in transfected cells
T2 sequence (P08173 1-479): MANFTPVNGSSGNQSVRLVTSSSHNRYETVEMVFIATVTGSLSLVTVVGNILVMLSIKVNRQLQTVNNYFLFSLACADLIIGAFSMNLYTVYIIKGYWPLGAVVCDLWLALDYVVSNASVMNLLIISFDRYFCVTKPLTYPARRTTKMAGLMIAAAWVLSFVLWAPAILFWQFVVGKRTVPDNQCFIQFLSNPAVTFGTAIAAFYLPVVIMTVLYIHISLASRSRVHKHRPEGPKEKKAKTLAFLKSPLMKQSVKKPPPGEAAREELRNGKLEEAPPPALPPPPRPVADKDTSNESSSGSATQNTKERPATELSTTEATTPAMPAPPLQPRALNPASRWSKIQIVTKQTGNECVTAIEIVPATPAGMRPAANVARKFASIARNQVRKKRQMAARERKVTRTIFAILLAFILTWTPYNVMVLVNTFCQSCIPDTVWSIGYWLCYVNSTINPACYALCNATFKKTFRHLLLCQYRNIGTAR
Description: as §1

[3] = read-out: % Emax cf. ACh (M4), CHO cells stably expressing human M4, relative to ACh

Compound	EC50 [1]	% Emax cf. ACh (M1) [1]	EC50 [2]	Emax [2, 3]	pEC50 M1 [1]	pEC50 M4 [2]	% Emax cf. ACh (M4) ([2]; relative to ACh)	Emax [1]	Emax ([2]; read-out: % Emax cf. ACh (M4))
CCOC(=O)N1CCC2(CC(N3CC4C(C3)C4C(CC)=NOC)C2)C1 (single isomer, unassigned) [2-25 Isomer 2]	1.29 µM	37%	0.437 µM	35%	–	–	–	–	–
CCOC(=O)N1C2CCC1CC(N1CC3C(C1)C3C(=O)N(C)CC)C2 (single isomer, unassigned; isomer 2) [7-2 Isomer 2]	–	113%	–	–	6.66	4.96	53%	–	–
COC(=O)N1C2COCC1CC(N1CC3C(C1)C3C(=O)N(C)C(C)C)C2 (single isomer, unassigned; isomer 2) [10-5 Isomer 2]	–	101%	–	–	5.66	4.90	90%	–	–
CCOC(=O)N1CCC2(CC(N3CC4C(C3)C4OC(C)c3ccccc3)C2)C1 (single isomer, unassigned) [2-28 Isomer 1]	0.575 µM	58%	> 20 µM	–	–	–	21%	–	–
CCOC(=O)N1CCC2(CC(N3CC4C(C3)C4N(CC)CC(F)(F)F)C2)C1 (mixture of isomers) [2-27 Mixture of isomers]	> 20 µM	–	1.48 µM	32%	–	–	–	20%	–
COC(=O)N1C2COCC1CC(N1CC3C(C1)C3C(=O)N(C)C(C)C)C2 (single isomer, unassigned; isomer 1) [10-5 Isomer 1]	–	99%	–	–	6.30	5.91	81%	–	–
CCN(CC)C(=O)C1C2CN(C3CC4CCCC(C3)N4C(=O)OC)CC21 (single isomer, unassigned; isomer 1) [9-3 Isomer 1]	–	106%	–	–	6.40	6.12	60%	–	–
CCOC(=O)N1C2COCC1CC(N1CC3C(C1)C3C(=O)N(C)CC)C2 (single isomer, unassigned; isomer 1) [10-1 Isomer 1]	–	110% and 78%	–	–	5.94 and 5.76	< 4.70	24% and 15%	–	–
CCOC(=O)N1C2CCC1CC(N1CC3C(CN(CC)C(C)=O)C3C1)C2 (single isomer, unassigned; isomer 2) [7-5 Isomer 2]	–	23%	–	–	< 4.70	6.13	38%	–	–
CCOC(=O)N1C2CCC1CC(N1CC3C(C1)C3C(=O)N(CC)CC)C2 (single isomer, unassigned; isomer 1) [7-3 Isomer 1]	–	123%	–	–	6.78	5.58	45%	–	–
CCOC(=O)N1C2CCCC1CC(N1CC3C(C1)C3C(=O)N(CC)CC)C2 (single isomer, unassigned; isomer 1) [9-2 Isomer 1]	–	102%	–	–	6.56	5.87	41%	–	–
CCN(CC)C(=O)C1C2CN(C3CC4COCC(C3)N4C(=O)OC)CC21 (single isomer, unassigned; isomer 2) [10-3 Isomer 2]	–	81%	–	–	5.75	< 4.70	25%	–	–
CCOC(=O)N1C2CCC1CC(N1CC3C(C1)C3C(=O)N(C)CC)C2 (single isomer, unassigned; isomer 1) [7-2 Isomer 1]	–	116%	–	–	6.11	< 4.70	14%	–	–
CCOC(=O)N1C2CCCC1CC(N1CC3C(C1)C3C(=O)N(C)CC)C2 (single isomer, unassigned; isomer 2) [9-1 Isomer 2]	–	93%	–	–	6.01	< 4.70	24%	–	–
CC(=O)OCC[N+](C)(C)C [ACh, acetylcholine, reference compound]	–	–	–	–	–	–	–	–	109%
CCOC(=O)N1C2CCC1CC(N1CC3C(C1)C3c1csc(C)n1)C2 (single isomer, unassigned; isomer 2) [7-6 Isomer 2]	–	56%	–	–	5.94	6.21	73%	–	–
CCOC(=O)C1C2CN(C3CC4CCC(C3)N4C(=O)OCC)CC21 (single isomer, unassigned; isomer 2) [7-1 Isomer 2]	–	83%	–	–	5.67	5.80	62%	–	–

More lines, main results first:

EC50 [1]	% Emax cf. ACh (M1) [1]	EC50 [2]	Emax [2, 3]	pEC50 M1 [1]	pEC50 M4 [2]	% Emax cf. ACh (M4) ([2]; relative to ACh)	Emax [1]	Compound	Emax ([2]; read-out: % Emax cf. ACh (M4))
0.132 µM	–	0.955 µM	81%	–	–	–	110%	CCOC(=O)N1CC2(CC(N3C[C@@H]4[C@H](C3)[C@H]4C(=O)N(CC)CC)C2)C1 [Example 1-2, ethyl 6-[(1R,5S,6r)-6-(diethylcarbamoyl)-3-azabicyclo[3.1.0]hex-3-yl]-2-azaspiro[3.3]heptane-2-carboxylate]	–
–	99%	–	–	5.99	4.85	86%	–	COC(=O)N1C2COCC1CC(N1CC3C(C1)C3C(=O)N1CCCCC1)C2 (single isomer, unassigned; isomer 2) [10-12 Isomer 2]	–
–	99%	–	–	7.42	6.79	69%	–	CCN(C(=O)C1C2CN(C3CC4COCC(C3)N4C(=O)OC)CC21)C(C)C (single isomer, unassigned; isomer 1) [10-7 Isomer 1]	–
0.234 µM	–	0.708 µM	35%	–	–	–	84%	CCOC(=O)N1CCC(N2C[C@@H]3[C@H](C2)[C@H]3C(=O)N(CC)CC)CC1 [Example 4-1]	–
–	116%	–	–	5.99	4.84	47%	–	CCOC(=O)N1C2COCC1CC(N1CC3C(C1)C3C(=O)N(C)C1CC1)C2 (single isomer, unassigned; isomer 1) [10-8 Isomer 1]	–
–	105%	–	–	6.57	5.47	38%	–	CCOC(=O)N1C2COCC1CC(N1CC3C(C1)C3C(=O)N(CC)C1CC1)C2 (single isomer, unassigned; isomer 2) [10-9 Isomer 2]	–
–	100%	–	–	6.83	6.23	64%	–	CCN(C(=O)C1C2CN(C3CC4COCC(C3)N4C(=O)OC)CC21)C(C)C (single isomer, unassigned; isomer 2) [10-7 Isomer 2]	–
4.57 µM	–	0.617 µM	47%	–	–	–	55%	CCOC(=O)N1CC2(CC(N3C[C@@H]4[C@H](C3)[C@H]4c3csc(C)n3)C2)C1 [Example 1-4, ethyl 6-[(1R,5S,6r)-6-(2-methyl-1,3-thiazol-4-yl)-3-azabicyclo[3.1.0]hex-3-yl]-2-azaspiro[3.3]heptane-2-carboxylate]	–
–	85%	–	–	5.65	5.67	32%	–	CCOC(=O)N1C2COCC1CC(N1CC3C(C1)C3C(=O)N(C)C1CC1)C2 (single isomer, unassigned; isomer 2) [10-8 Isomer 2]	–
